Tested on: SARS-CoV-2
Assay: microbe, parasite or virus in culture
Settings: Severe acute respiratory syndrome coronavirus 2, Vero C1008, 48 h

Row | SMILES | IC50 [µM] | IC50 (read-out: pIC50 (converted)) [µM]
1 | CCC(OC(C)=O)C(CC(C)NC)(c1ccccc1)c1ccccc1 (stereo unspecified) [NORACYMETHADOL] | > 20 | > 20
2 | CNc1cccc(NC(=O)NC2N=C(c3ccccn3)c3ccccc3N(CC(=O)C(C)(C)C)C2=O)c1 (stereo unspecified) | > 20 | > 20
3 | Cc1cccc(CN2CCN(C(c3ccccc3)c3ccc(Cl)cc3)CC2)c1 (stereo unspecified) [MECLIZINE] | > 20 | > 20
4 | CNC(C)(C)Cc1ccccc1 [MEPHENTERMINE] | > 20 | > 20
5 | Cc1ccsc1C(=CCCN1CCC[C@@H](C(=O)O)C1)c1sccc1C [TIAGABINE] | > 20 | > 20
6 | CN1CCN(c2cc3c(nn2)Oc2ccccc2N3C)CC1 [PIPOFEZINE] | > 20 | > 20
7 | CO[C@H]1/C=C/O[C@@]2(C)Oc3c(C)c(O)c4c(c3C2=O)C2=NC3(CCN(CC(C)C)CC3)NC2=C(NC(=O)/C(C)=C\C=C\[C@H](C)[C@H](O)[C@@H](C)[C@@H](O)[C@@H](C)[C@H](OC(C)=O)[C@@H]1C)C4=O [RIFABUTIN] | > 20 | > 20
8 | CC(C)OC(=O)[C@H](C)N[P@@](=S)(OC[C@H]1O[C@@H](n2ccc(=O)[nH]c2=O)[C@](C)(O)[C@@H]1O)Oc1ccccc1 | > 20 | > 20
9 | NC(=O)c1cnc(N[C@@H]2CCCC[C@@H]2N)nc1Nc1cccc(-n2nccn2)c1 | > 20 | > 20
10 | O=C1CN(/N=C/c2ncc(-c3ccc(Br)cc3)o2)C(=O)N1 [AZUMOLENE] | > 20 | > 20
11 | CCCCCCCN(CC)CCCC(O)c1ccc(NS(C)(=O)=O)cc1 (stereo unspecified) [IBUTILIDE] | > 20 | > 20
12 | Cn1c([N+](=O)[O-])cnc1/C=C/c1ccnc(N)n1 [AZANIDAZOLE] | > 20 | > 20
13 | CCC(Cc1c(I)cc(I)c(N)c1I)C(=O)O (stereo unspecified) [IOPANOIC ACID] | > 20 | > 20
14 | CC(C)=CCN1CC[C@]2(C)c3cc(O)ccc3C[C@H]1[C@H]2C [(+)-PENTAZOCINE] | > 20 | > 20
15 | OCC(O)COc1ccc(Cl)cc1 (stereo unspecified) | > 20 | > 20
16 | C=CC(=O)Nc1cc2c(Nc3ccc(F)c(Cl)c3)ncnc2cc1OCCCN1CCOCC1 [CANERTINIB] | > 20 | > 20
17 | O[C@H]1[C@H]2c3cc4c(cc3CN3CCC(=C[C@@H]1O)[C@H]23)OCO4 [LYCORINE] | > 20 | > 20
18 | CN1Cc2ccccc2[C@@H]2c3cccc4[nH]cc(c34)C[C@H]21 | > 20 | > 20
19 | COc1ccc2[nH]cc(CCN(C)C)c2c1 [MEBUFOTENIN] | > 20 | > 20

Row | SMILES | IC50 [µM] | IC50 (read-out: pIC50 (converted)) [µM]
20 | COC(=O)c1ccc(O)cc1 [METHYLPARABEN] | > 20 | > 20
21 | c1ccc2[nH]ncc2c1 [INDAZOLE] | > 20 | > 20
22 | COc1ccc(-c2cc(=S)ss2)cc1 [ANETHOLTRITHION] | > 20 | > 20
23 | CCCCCCCCCCCCCCC[C@@H](O)[C@@H](N)CO [DIHYDROSPINGOSINE] | > 20 | > 20
24 | CN1CCN2c3ncccc3Cc3ccccc3C2C1 (stereo unspecified) [MIRTAZAPINE] | > 20 | > 20
25 | CCOC(=O)Nc1nc2ccccc2[nH]1 [LOBENDAZOLE] | > 20 | > 20
26 | O=c1cc(-c2ccccc2)oc2cccc(O)c12 [5-HYDROXYFLAVONE] | > 20 | > 20
27 | Clc1ccc(COC(Cn2ccnc2)c2ccc(Cl)cc2Cl)cc1 (stereo unspecified) [ECONAZOLE] | > 20 | > 20
28 | C[C@@H]1CC[C@@]2(NC1)O[C@H]1C[C@H]3[C@@H]4CC=C5C[C@@H](O)CC[C@]5(C)[C@H]4CC[C@]3(C)[C@H]1[C@@H]2C | > 20 | > 20
29 | CC(C)(C)NC(=O)c1ccc(Oc2cc(F)c(CC(=O)O)cc2Cl)c(NS(=O)(=O)c2ccc(C3CC3)cc2Cl)c1 [VIDUPIPRANT] | > 20 | > 20
30 | COc1ccc(N(C)c2nc(C)nc3ccccc23)cc1 [VERUBULIN] | > 20 | > 20
31 | CCCCCCC(=O)OCCN1CCN(CCCN2c3ccccc3Sc3ccc(C(F)(F)F)cc32)CC1 [FLUPHENAZINE ENANTHATE] | > 20 | > 20
32 | NC(=O)OCC(O)COc1ccc(Cl)cc1 (stereo unspecified) [CHLORPHENESIN CARBAMATE] | > 20 | > 20
33 | CN1C(=O)CC2(CCN(CCCC(=O)c3ccc(F)cc3)CC2)C1=O [ROXOPERONE] | > 20 | > 20
34 | Cc1sc2ccccc2c1CC1=NCCN1 [METIZOLINE] | > 20 | > 20
35 | O=S(=O)(c1ccccc1)c1cnc2c(N3CCNCC3)cccc2c1 [INTEPIRDINE] | > 20 | > 20
36 | Cc1c(Cl)cccc1Nc1ncccc1C(=O)O [CLONIXIN] | > 20 | > 20
37 | Cc1cc(S(N)(=O)=O)ccc1NC(=O)COc1ccc(Cl)cc1C(=O)c1cc(Cl)cc(C#N)c1 | > 20 | > 20
38 | C[C@@H]1C(=O)O[C@H]2C[C@@]34[C@H]5C[C@@H](C(C)(C)C)[C@]36[C@@H](OC(=O)[C@@H]6O)O[C@@]4(C(=O)O5)[C@]21O [GINKGOLIDE A] | > 20 | > 20

From ChEMBL document CHEMBL4651402, “Screening of ~5500 FDA-approved drugs and clinical candidates for anti-SARS-CoV-2 activity” (2021)
